For 14 molecules, IC50 results are on record in ChEMBL document CHEMBL1132762, “RGD mimetics containing a central hydantoin scaffold: alpkha(v)beta3 vs alpha(IIb)beta3 selectivity requirements” (Bioorg Med Chem Lett, 2000).

A value given as a limit tells only on which side of the number the result lay.

The IC50 is the concentration that inhibits the measured activity by half. A high value points to weaker potency in that assay.

Test [1] has as its target Integrin alpha-V/beta-3 (Homo sapiens, UniProt P05106+P06756). The test is described as follows: Inhibition of Kistrin binding to integrin alphaV-beta3. Type of test: protein-complex assay.
In test [2] the target is Integrin alpha-IIb/beta-3 (Homo sapiens, UniProt P05106+P08514). The test is described as follows: Inhibition of fibrinogen binding to integrin alphaIIb-beta3. Type of test: protein-complex assay.
Sequence of Integrin alpha-IIb/beta-3 (P05106 27-788 limits assumed): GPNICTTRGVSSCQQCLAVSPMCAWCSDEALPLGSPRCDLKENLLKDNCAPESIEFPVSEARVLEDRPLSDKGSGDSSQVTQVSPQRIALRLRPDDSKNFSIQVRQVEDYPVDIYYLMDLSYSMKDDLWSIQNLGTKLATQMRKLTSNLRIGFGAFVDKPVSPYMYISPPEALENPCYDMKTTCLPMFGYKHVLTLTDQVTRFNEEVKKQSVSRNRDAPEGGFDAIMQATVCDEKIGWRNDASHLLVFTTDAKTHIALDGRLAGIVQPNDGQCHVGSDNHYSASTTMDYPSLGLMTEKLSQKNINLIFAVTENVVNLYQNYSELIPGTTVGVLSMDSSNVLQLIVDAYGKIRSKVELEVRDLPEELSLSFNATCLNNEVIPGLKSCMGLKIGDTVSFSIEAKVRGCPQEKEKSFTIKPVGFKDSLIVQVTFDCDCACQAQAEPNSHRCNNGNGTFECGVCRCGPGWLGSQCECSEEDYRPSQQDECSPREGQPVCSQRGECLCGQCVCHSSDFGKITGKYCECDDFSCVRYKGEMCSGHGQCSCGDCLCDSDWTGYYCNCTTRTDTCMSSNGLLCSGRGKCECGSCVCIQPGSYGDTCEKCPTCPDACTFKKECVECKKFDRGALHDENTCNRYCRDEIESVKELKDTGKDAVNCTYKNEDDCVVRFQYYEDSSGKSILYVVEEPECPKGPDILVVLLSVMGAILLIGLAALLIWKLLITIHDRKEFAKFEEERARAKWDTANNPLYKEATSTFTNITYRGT
Sequence of Integrin alpha-IIb/beta-3 (P08514 32-887 limits assumed): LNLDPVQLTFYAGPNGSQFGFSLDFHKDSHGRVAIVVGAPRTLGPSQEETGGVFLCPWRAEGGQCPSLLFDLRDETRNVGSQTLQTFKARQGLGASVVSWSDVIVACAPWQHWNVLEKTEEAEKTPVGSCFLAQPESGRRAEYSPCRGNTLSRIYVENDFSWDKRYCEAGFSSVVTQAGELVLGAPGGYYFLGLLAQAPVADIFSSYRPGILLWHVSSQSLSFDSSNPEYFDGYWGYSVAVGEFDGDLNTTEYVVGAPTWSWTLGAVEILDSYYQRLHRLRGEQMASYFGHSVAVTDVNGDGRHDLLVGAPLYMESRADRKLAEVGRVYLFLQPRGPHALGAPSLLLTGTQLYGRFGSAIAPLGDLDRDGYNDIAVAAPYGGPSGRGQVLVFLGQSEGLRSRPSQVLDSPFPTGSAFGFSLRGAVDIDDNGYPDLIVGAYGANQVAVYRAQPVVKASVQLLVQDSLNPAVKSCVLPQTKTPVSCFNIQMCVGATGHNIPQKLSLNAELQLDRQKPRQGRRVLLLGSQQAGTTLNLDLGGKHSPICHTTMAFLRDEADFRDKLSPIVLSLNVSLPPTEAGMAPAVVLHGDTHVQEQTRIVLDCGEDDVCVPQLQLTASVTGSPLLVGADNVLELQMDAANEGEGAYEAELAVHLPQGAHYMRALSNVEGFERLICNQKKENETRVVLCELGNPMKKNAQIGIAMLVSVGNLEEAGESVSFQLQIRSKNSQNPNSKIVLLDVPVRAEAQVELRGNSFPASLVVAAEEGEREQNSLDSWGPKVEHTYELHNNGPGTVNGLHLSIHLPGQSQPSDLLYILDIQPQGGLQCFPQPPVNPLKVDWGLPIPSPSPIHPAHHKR
Sequence of Integrin alpha-IIb/beta-3 (P08514 891-1039 limits assumed): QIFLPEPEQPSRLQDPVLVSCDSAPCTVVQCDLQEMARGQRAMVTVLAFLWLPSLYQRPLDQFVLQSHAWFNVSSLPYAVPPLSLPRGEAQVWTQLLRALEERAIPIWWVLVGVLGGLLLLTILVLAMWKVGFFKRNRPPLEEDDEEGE

Sequence of Integrin alpha-V/beta-3 (P05106 27-788 limits assumed): as the sequence (P05106 27-788 limits assumed) above
Sequence of Integrin alpha-V/beta-3 (P06756 31-889 limits assumed): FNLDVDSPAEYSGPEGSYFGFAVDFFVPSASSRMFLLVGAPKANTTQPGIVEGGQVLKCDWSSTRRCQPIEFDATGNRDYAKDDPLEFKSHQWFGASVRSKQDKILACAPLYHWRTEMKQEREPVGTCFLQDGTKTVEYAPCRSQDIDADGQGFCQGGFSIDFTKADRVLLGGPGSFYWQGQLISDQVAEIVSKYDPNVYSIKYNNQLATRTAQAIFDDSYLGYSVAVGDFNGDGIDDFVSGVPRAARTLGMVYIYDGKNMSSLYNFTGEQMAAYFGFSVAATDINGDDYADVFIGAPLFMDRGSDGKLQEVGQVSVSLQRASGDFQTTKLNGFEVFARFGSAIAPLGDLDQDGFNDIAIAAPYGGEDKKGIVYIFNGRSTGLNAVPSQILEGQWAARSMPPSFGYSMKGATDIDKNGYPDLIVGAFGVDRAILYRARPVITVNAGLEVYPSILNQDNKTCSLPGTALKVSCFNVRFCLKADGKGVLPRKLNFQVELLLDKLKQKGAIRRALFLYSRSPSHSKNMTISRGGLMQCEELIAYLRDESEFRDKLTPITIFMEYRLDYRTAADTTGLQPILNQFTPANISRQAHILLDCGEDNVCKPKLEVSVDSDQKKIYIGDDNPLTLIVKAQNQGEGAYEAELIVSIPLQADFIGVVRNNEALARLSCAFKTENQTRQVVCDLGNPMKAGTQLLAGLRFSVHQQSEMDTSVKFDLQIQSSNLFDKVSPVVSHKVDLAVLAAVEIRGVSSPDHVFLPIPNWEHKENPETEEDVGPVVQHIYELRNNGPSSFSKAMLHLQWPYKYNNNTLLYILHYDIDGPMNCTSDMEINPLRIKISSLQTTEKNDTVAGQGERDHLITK
Sequence of Integrin alpha-V/beta-3 (P06756 891-1048 limits assumed): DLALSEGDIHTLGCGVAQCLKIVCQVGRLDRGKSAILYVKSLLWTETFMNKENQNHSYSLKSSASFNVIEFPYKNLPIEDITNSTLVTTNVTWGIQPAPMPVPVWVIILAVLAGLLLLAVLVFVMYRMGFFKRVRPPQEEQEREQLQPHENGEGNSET

Regarding `N=C(N)NC[C@@H]1NC(=O)N(CC(=O)NCC(NC(=O)OCc2ccccc2)C(=O)O)C1=O` (some centres not stated), the IC50 in test [1] came to 15000 nM; in test [2], 10000 nM.

`N=C(N)NCCCC[C@@H]1NC(=O)N(CC(=O)NCC(NC(=O)OCc2ccccc2)C(=O)O)C1=O` (some centres not stated): the IC50 came to 200 nM in test [1] and 850 nM in test [2].

For the molecule `O=C(CN1C(=O)N[C@@H](CCCNc2ncccn2)C1=O)NCC(NC(=O)OCc1ccccc1)C(=O)O` (some centres not stated), the IC50 in test [1] was 1660 nM; in test [2], over 10000 nM.

Turning to `O=C(C[C@@H]1NC(=O)N(CC(=O)NCC(NC(=O)OCc2ccccc2)C(=O)O)C1=O)NCc1nc2ccccc2[nH]1` (some centres not stated), the IC50 in test [1] amounted to 15000 nM.

For `CCCCS(=O)(=O)NC(CNC(=O)CN1C(=O)N[C@@H](CCCN=C(N)N)C1=O)C(=O)O` (some centres not stated), the IC50 in test [1] was found to be 760 nM; in test [2] it was 350 nM.

With `N=C(N)NCCC[C@@H]1NC(=O)N(CC(=O)NCC(NC(=O)c2ccc3ccccc3c2)C(=O)O)C1=O` (some centres not stated), the IC50 in test [1] and in test [2] was 200 nM throughout.

As to `N=C(N)NCCC[C@@H]1NC(=O)N(CC(=O)NCC(NC(=O)CCc2ccccc2)C(=O)O)C1=O` (some centres not stated), the figures for the IC50 in test [1] and in test [2] were 350 nM and 550 nM, respectively.

With `O=C(CN1C(=O)N[C@@H](CCCNC2=NCCN2)C1=O)NCC(NC(=O)OCc1ccccc1)C(=O)O` (some centres not stated), the 50% inhibitory concentration (IC50) in test [1] was 20 nM; in test [2] it was over 10000 nM.

For `N=C(N)NCCC[C@@H]1NC(=O)N(CC(=O)NCC(NC(=O)NCc2ccccc2)C(=O)O)C1=O` (some centres not stated), the IC50 in test [1] turned out to be 570 nM; in test [2] it was 180 nM.

Take `N=C(N)NCC[C@@H]1NC(=O)N(CC(=O)NCC(NC(=O)OCc2ccccc2)C(=O)O)C1=O` (some centres not stated): the IC50 in test [1] is 5000 nM; in test [2] it was 10000 nM.

For the molecule `O=C(CN1C(=O)N[C@@H](CCCNc2nc3ccccc3[nH]2)C1=O)NCC(NC(=O)OCc1ccccc1)C(=O)O` (some centres not stated), the IC50 in test [1] was 40 nM; in test [2] it was over 10000 nM.

For the molecule `N=C(N)NCCC[C@@H]1NC(=O)N(CC(=O)NCC(NC(=O)OCc2ccccc2)C(=O)O)C1=O` (some centres not stated), the IC50 in test [1] is 80 nM; in test [2] it was 2400 nM.

Turning to `O=C(CN1C(=O)N[C@@H](CC(=O)NNC2=NCCN2)C1=O)NCC(NC(=O)OCc1ccccc1)C(=O)O` (some centres not stated), the 50% inhibitory concentration (IC50) was 580 nM in test [1] and over 10000 nM in test [2].

Consider `N=C(N)NCCC[C@@H]1NC(=O)N(CC(=O)NCC(/N=C(\S)NCc2ccccc2)C(=O)O)C1=O` (some centres not stated), for which the IC50 in test [1] amounted to 3000 nM; in test [2], 10000 nM.
